Results reported in ChEMBL document CHEMBL1201862, “PubChem BioAssay data set” (2004).
Active and inactive are the calls of the source.

Legend:
Paired box protein Pax-8 = Paired box protein Pax-8 (Homo sapiens, UniProt Q06710); assay: PAX8 transcriptional activity inhibition in RMG-I – RMG-I cells, luciferase, cherry-pick, dose response (AID 687027); assay type: functional, cell-based;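 also: luciferase reporter driven by Pax8 target thyroperoxidase promoter measured by SteadyGlo luminescence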
[1] = Luminescence Cell-Based Dose Response HTS to Identify Activators of Luciferase Translation or Activity in H4 […] Cells. [Related pubchem assays: 1829 (Project Summary), 1814 (Primary HTS)]; assay type: functional
H4 = assay: Luminescence Cell-Based Dose Response HTS to Identify Activators of 5'UTR Stem-Loop Driven Prion Protein mRNA Translation in H4 Neuroglioblastoma Cells. [Related pubchem assays: 1829 (Project Summary), 1814 (Primary HTS)]; assay type: functional; details: Homo sapiens
[2] = molecular target: T1, Replicative DNA helicase DnaB (Mycobacterium tuberculosis, UniProt P9WMR3); assay: DnaB intein splicing inhibitors, dose response, biochemical, cell-free fluorescence (AID 449749); assay type: functional
T1 sequence (P9WMR3 whole entry): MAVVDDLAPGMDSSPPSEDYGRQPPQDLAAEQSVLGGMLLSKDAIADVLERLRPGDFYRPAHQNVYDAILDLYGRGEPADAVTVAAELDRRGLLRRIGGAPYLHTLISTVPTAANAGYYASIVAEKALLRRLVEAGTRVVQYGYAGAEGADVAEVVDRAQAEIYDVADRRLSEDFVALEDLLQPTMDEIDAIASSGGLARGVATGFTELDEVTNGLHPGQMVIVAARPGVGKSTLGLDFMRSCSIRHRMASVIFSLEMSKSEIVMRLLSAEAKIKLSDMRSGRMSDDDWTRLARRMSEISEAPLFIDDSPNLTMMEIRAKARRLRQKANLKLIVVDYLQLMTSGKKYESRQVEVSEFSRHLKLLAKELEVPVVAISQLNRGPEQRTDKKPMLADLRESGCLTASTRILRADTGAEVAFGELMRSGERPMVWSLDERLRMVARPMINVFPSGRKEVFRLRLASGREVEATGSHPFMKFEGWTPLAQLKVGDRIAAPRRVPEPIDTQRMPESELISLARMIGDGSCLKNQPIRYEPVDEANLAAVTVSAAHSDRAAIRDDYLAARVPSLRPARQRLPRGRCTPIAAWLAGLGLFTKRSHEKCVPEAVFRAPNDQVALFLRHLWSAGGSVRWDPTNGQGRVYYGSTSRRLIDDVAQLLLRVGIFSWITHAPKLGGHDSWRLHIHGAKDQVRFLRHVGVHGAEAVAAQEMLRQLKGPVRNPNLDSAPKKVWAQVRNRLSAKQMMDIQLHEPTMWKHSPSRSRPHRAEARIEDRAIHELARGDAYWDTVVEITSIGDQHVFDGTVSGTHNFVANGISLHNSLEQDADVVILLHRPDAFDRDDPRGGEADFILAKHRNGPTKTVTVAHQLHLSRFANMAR

Protein RecA = molecular target: T2, Protein RecA (Mycobacterium tuberculosis, UniProt P9WHJ3); assay: Fluorescence Cell-Free Homogeneous Dose Retest to Identify Inhibitors of RecA-Intein Splicing Activity. [Related pubchem assays (depositor defined):AID2097, AID2223, AID489010, AID492950]; assay type: functional
T2 sequence (P9WHJ3 whole entry): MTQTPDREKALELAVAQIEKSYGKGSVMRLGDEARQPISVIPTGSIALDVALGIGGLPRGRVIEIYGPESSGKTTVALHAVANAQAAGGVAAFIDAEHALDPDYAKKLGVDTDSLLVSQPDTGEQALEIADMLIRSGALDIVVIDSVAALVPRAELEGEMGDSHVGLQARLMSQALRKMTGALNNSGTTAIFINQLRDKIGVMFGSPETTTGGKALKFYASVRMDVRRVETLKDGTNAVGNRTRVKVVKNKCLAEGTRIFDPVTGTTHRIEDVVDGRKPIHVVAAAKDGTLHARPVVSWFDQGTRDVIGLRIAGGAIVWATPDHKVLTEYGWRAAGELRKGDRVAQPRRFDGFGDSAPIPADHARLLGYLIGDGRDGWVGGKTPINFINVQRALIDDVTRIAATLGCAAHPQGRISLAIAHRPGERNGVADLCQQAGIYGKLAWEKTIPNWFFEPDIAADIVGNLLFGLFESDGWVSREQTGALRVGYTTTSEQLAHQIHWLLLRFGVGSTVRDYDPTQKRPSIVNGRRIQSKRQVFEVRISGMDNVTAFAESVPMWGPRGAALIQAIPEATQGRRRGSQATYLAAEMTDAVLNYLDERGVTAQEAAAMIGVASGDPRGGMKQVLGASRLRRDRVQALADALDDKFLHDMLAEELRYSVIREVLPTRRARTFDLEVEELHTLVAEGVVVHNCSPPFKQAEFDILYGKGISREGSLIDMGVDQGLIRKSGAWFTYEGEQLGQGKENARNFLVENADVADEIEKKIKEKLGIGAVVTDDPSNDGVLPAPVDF

[3] = Trypanosoma cruzi growth suppression in host cells – NIH3T3 host cells, beta-gal luminescence, confirmation (AID 2044); assay type: functional, cell-based;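 also: intracellular parasites grown in NIH/3T3 mouse fibroblasts as host cells; luminescent beta-galactosidase reporter signal from transgenic T. cruzi replicating inside host cells; inhibitors lower the luminescence signal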
cells [4] = assay: cells
[5] = NIH3T3 cell viability loss – ATP luminescence, mouse fibroblasts, counter-screen, dose response (AID 2010); assay type: functional, cell-based;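 also: cells exposed to compound for about 90 hours before reading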
[6] = reduction of Shn3 3'UTR-driven luciferase in osteoblasts – cell-based, Clone20 osteoblasts, firefly luciferase, cherry-picked, dose response (AID 624132); assay type: functional;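 also: firefly luciferase luminescence from reporter carrying the Shn3 3'UTR in osteoblasts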
[7] = non-specific 3'UTR reporter inhibition in Clone20-Shn3RL – cell-based, Renilla luciferase, cherry-picked, counter-screen for Shn3 inhibitor project, dose response (AID 624133); assay type: functional
[8] = loss of viability in HepG2 cells – cell-based, CellTiter-Glo, cherry-picked, cytotoxicity control for Shn3 inhibitor project, dose response (AID 624134); assay type: functional
[9] = molecular target: T3, Corticotropin-releasing factor receptor 2/Corticotropin-releasing factor-binding protein (Homo sapiens, UniProt P24387+Q13324); assay: activators of CRF receptor 2 with binding protein – uHTS hits, confirmation (AID 602473); assay type: functional; details: read-out: EC50_Mean
T3 sequence (Q13324 whole entry): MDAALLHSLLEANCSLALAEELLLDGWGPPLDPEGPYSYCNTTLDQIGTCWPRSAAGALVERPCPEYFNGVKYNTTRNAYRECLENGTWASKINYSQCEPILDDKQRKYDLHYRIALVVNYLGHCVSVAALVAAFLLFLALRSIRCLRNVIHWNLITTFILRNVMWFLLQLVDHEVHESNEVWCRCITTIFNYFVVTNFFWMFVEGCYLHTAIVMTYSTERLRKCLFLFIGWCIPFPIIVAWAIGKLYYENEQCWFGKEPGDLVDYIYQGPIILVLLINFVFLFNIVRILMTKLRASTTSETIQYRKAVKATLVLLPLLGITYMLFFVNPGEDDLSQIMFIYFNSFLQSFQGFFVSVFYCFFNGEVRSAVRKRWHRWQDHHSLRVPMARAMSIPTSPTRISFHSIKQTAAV
T3 sequence (P24387 whole entry): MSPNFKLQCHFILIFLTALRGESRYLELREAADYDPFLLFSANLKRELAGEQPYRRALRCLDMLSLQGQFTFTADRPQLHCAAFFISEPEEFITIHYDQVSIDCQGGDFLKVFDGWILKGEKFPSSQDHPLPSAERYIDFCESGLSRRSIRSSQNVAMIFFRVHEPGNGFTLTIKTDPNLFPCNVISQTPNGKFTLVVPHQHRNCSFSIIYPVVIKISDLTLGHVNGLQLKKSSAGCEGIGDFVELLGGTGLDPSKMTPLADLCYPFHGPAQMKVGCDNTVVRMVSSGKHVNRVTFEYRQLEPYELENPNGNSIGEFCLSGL

[10] = molecular target: T3, Corticotropin-releasing factor receptor 2/Corticotropin-releasing factor-binding protein; assay: Dose Response confirmation of uHTS hits for small molecule antagonists of the CRF-binding protein and CRF-R2 receptor complex.; assay type: functional; details: read-out: IC50_Mean
cells [11] = assay type: functional, cell-based
cells [12] = assay type: functional, cell-based; remark: listed apart in the source
[13] = molecular target: T4, Heat shock factor protein 1 (Mus musculus, UniProt P38532); assay: enhancement of HSF1-driven luciferase signal – cell-based, NIH3T3, luminescence, dose retest, confirmation (AID 435004); assay type: functional;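 also: stress induced by proteasome inhibitor MG132 added 30 min after compound; luciferase reporter driven by HSF1 response element in NIH3T3 cells; actives raise luminescence as potentiators of the MG132 stress response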
T4 sequence (P38532 whole entry): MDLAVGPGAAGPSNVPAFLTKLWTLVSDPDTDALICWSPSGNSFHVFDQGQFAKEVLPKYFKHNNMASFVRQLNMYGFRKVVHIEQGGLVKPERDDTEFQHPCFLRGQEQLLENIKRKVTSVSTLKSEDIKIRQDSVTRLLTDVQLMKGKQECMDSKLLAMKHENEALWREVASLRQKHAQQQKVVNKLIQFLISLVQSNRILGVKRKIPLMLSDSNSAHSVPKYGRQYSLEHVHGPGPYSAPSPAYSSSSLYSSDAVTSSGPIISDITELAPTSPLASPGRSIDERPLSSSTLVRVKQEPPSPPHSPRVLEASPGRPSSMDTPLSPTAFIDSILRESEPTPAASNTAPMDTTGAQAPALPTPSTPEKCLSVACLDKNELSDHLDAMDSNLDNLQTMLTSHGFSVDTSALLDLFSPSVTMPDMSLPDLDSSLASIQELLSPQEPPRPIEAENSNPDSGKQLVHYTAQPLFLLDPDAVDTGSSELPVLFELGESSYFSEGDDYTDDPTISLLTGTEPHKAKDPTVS

[14] = Luminescence Cell-Based Dose Retest to Confirm Inhibitors of Cancer Stem Cells. [Related pubchem assays (depositor defined):AID2717, AID2721]; assay type: functional; details: Homo sapiens
INS1 = assay: INS-1E survival protection against cytokine death – cell-based, luminescence, retest, dose response (AID 449756); assay type: functional; details: Rattus norvegicus;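 also: cell death triggered by IL-1 beta plus TNF-alpha plus IFN-gamma mixture; protective hits raise ATP signal compared with cytokine alone wells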

Paired box protein Pax-8, sequence (Q06710 whole entry): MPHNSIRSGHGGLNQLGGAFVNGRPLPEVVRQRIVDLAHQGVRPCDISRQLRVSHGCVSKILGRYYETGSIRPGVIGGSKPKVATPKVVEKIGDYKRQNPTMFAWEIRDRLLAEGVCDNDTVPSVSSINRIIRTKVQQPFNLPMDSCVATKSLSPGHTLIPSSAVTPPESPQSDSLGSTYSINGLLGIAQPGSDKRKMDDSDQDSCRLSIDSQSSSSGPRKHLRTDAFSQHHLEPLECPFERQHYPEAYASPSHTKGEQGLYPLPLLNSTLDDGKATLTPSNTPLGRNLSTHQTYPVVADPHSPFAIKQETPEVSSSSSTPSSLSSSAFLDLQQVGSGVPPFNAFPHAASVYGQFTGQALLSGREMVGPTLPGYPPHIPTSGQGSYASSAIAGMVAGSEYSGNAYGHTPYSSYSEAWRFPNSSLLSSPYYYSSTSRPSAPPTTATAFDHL

O=C(Nc1nc(-c2cccs2)c(-c2cccs2)s1)C1(c2ccccc2)CC1
AC50 (Paired box protein Pax-8): 51.1 µM (active)

Cn1c(C(=O)NCC2CCCO2)cc2oc3ccccc3c21 (configuration not stated)
EC50 [1]: 289 nM (active) | EC50 (H4): 47 µM (active)

CN(C)c1ccc2nsnc2c1[N+](=O)[O-]
AC50 [2]: > 380 µM (inactive) | EC50 (Protein RecA): 8.64 µM (active)

Cc1ccc2sc(N(CCCN(C)C)C(=O)c3ccc(S(=O)(=O)N4CCOCC4)cc3)nc2c1C
EC50 [3]: < 100 nM (active) | EC50 (cells [4]): 408 nM (active) | EC50 [5]: > 60 µM (not active)

C[C@@H]1CCCCO[C@H](CN(C)Cc2ccc(Cl)c(Cl)c2)[C@H](C)CN([C@@H](C)CO)C(=O)c2cc(NC(=O)Nc3ccccc3)ccc2O1
AC50 (Paired box protein Pax-8): 8.42 µM (active)

CN(c1ccccc1)S(=O)(=O)c1cc(C(=O)OCC(=O)N2CCN(C(=O)c3ccco3)CC2)ccc1Cl
AC50 [6]: 62.9 µM (active) | AC50 [7]: 30.6 µM (active) | AC50 [8]: > 70 µM (inactive)

CCCCNS(=O)(=O)c1ccc(S(=O)(=O)NCc2ccncc2)cc1
AC50 [6]: 2.4 µM (active) | AC50 [7]: 23 µM (active) | AC50 [8]: 6.47 µM (active)

Cc1nn(-c2ccccc2)c(/N=C/c2ccccc2O)c1-c1ccccc1
EC50 [1]: 45700 nM (active) | EC50 (H4): 48.4 µM (active)

COc1ccc(/C=C2/CCc3ccccc3C2=O)cc1CN1CCOCC1
EC50 [3]: < 100 nM (active) | EC50 (cells [4]): 245 nM (active) | EC50 [5]: > 60 µM (not active)

Cc1ccc(S(=O)(=O)N2CCc3ccccc3CC2)cc1
AC50 [6]: 3.29 µM (active) | AC50 [7]: 3.03 µM (active) | AC50 [8]: 44.8 µM (active)

Cc1c(C(=O)NCc2cccnc2)oc2ccccc12
EC50 [9]: > 53 µM (inactive) | IC50 [10]: > 47.1 µM (inactive)

CN(C)CCCNC(=O)c1ccccc1Oc1ccccc1
EC50 [9]: > 53 µM (inactive) | IC50 [10]: > 47.1 µM (inactive)

CC(C)c1ccc(NC(=O)NC2CCCCC2)cc1
EC50 [1]: 114 nM (active)

Cc1cc(NC(=O)C23CC4CC(C2)CC(n2cnc([N+](=O)[O-])n2)(C4)C3)no1
EC50 [3]: < 100 nM (active) | EC50 (cells [4]): 89 nM (active) | EC50 [5]: > 30 µM (not active)

COc1ccc(CN2CCNC(=O)C2CC(=O)N(C)CC2CCOCC2)cc1OC (configuration not stated)
EC50 (cells [11]): > 350 µM (not active) | EC50 (cells [12]): > 350 µM (not active)

O=[N+]([O-])c1cccc2c([As](=O)(O)O)cccc12
AC50 [2]: 16.4 µM (active) | EC50 (Protein RecA): 10.1 µM (active)

COc1ccc(NC(=S)NCc2cccnc2)cc1
EC50 [9]: > 53 µM (inactive) | IC50 [10]: 9.74 µM (active)

O=C(CC12CC3CC(CC(C3)C1)C2)N/N=C/c1ccc([N+](=O)[O-])o1
EC50 [3]: < 100 nM (active) | EC50 (cells [4]): 19 nM (active) | EC50 [5]: > 60 µM (not active)

COCc1nnc(NC(=O)c2cc(Cl)ccc2OC)s1
EC50 (cells [11]): > 350 µM (not active) | EC50 (cells [12]): > 350 µM (not active)

Cc1n[nH]c2c1C(c1cc(Br)cs1)C(C#N)=C(N)O2 (configuration not stated)
AC50 [2]: 12.7 µM (active) | EC50 (Protein RecA): 6.13 µM (active) | EC50 [13]: 14.6 µM (active)

O=C(NCCc1ccccc1)c1cc2sccc2n1Cc1ccccc1
EC50 (cells [11]): > 350 µM (not active) | EC50 (cells [12]): > 350 µM (not active)

CCOc1ccc(CN2CCCC(N3CCN(c4ccc(OC)cc4)CC3)C2)cc1 (configuration not stated)
EC50 [3]: < 100 nM (active) | EC50 (cells [4]): 42 nM (active) | EC50 [5]: > 60 µM (not active)

CCOC(=O)c1cc(S(=O)(=O)Nc2ccc(F)cc2F)cn1C
EC50 [9]: > 53 µM (inactive) | IC50 [10]: > 47.1 µM (inactive)

CNc1nc(Cl)nc(Nc2ccccc2)n1
EC50 [9]: > 53 µM (inactive) | IC50 [10]: > 47.1 µM (inactive)

COc1cccc(NC(=O)COC(=O)c2ccccc2C(=O)N2CCN(c3ccccc3)CC2)c1
EC50 [9]: > 53 µM (inactive) | IC50 [10]: > 47.1 µM (inactive)

CCc1ccc(S(=O)(=O)Nc2ccc(O)c3ccccc23)cc1
AC50 [14]: 5.13 µM (active) | AC50 [2]: 0.305 µM (active) | AC50 (INS1): 8.73 µM (active) | EC50 (Protein RecA): 0.0482 µM (active)

Cc1n[nH]c2c1C(c1ccoc1)C(C#N)=C(N)O2 (configuration not stated)
AC50 [2]: 5.36 µM (active) | EC50 (Protein RecA): 2.25 µM (active)
